Test results taken from patent US6037333A, “Microbe-inhibiting compositions” (Trustees of Tufts College, priority 1998, dated 2000).
Entries after “also recorded” stand apart in the source; their conditions may differ. Read-outs that look alike come from different tables or passages of the source.

Legend:
[1] = biological target: proteinases P1, P2, P3, P4; experiment: Zymography with proteinase inhibitors, components P1-P4; format: biochemical, Acanthamoeba; conditions: inhibitor 1 mM
Protocol: (§1) To characterize the mechanism by which the mannose-mediated host-parasite interactions influence the amoeba-induced cytolysis and/or cytopathic effect, conditioned media obtained by incubating amoebae with primary cultures of corneal epithelium in the presence and absence of α-Man for 6 to 8 hours were analyzed by zymography. Media conditioned by only Acanthamoeba or only epithelial cells were also analyzed. Zymography was performed using separating gels containing 10% acrylamide and 2 mg/ml gelatin, essentially as described by D. E. Kleiner et al. (Anal Biochem. 218:325-329, 1994). Samples were diluted in the electrophoresis sample buffer (U. K. Laemmli, Nature 227:680-685, 1970) without mercaptoethanol and were applied to the gels. After electrophoresis, proteinases separated on the gels were renatured by incubating the gels in 2.5% Triton X-100 in 50 mM Tris-HCl, pH 7.5 to remove SDS. After incubating the gels for 18 hours in a developing buffer (50 mM Tris-HCl, pH 7.5 containing 10 mM CaCl2), the gels were stained with Coomassie brilliant blue. Areas of digestion were visualized as non-staining regions. In some experiments, samples were pre-treated with phenylmethylsulfonyl fluoride (PMSF, 1 mM), an inhibitor of […] for one hour prior to electrophoresis, or 1,10-phenanthroline (1 mM), an inhibitor of metalloproteinases, was added to the developing buffer.

proteinases E1, E2 = experiment: Zymography with proteinase inhibitors, media conditioned by epithelial cells alone; format: biochemical, rabbit; conditions: inhibitor 1 mM
Protocol: as §1

[2] = biological target: mannose binding protein (MBP) of Acanthamoeba (Acanthamoeba castellanii, UniProt Q6J288); experiment: Solid-phase assay of 35S-labeled Acanthamoeba binding to Man-BSA coated wells; set-up: species or system Acanthamoeba strain MEEI 0184 (A. castellani); conditions: for Inhibition of Acanthamoeba binding to Man-BSA: at 100 mM; for Inhibition of amoebic binding to Man-BSA / affinity of amoebic lectin: no concentration stated
Sequence of mannose binding protein (MBP) of Acanthamoeba (Q6J288 entry or part of it): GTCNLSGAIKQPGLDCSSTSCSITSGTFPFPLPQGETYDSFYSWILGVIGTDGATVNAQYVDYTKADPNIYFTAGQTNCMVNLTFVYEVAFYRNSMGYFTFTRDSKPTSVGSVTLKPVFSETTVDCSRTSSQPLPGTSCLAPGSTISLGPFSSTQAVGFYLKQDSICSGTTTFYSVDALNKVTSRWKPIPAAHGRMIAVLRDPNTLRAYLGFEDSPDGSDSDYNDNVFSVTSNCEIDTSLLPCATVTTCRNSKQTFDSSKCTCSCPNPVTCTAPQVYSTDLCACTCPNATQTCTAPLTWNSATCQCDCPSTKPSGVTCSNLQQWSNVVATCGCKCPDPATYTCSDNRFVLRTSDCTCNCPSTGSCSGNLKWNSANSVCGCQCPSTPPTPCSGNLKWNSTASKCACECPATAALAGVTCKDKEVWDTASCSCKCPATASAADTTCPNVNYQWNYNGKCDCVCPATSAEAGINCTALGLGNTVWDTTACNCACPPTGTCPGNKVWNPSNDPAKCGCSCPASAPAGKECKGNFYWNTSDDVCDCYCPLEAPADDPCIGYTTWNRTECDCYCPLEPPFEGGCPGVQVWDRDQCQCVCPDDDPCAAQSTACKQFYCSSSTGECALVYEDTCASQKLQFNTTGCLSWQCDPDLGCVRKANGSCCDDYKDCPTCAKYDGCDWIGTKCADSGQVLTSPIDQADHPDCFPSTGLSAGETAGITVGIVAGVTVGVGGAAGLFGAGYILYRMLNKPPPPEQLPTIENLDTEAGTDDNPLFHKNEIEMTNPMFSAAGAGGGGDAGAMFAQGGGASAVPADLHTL
Source text: The Acanthamoeba strain MEEI 0184 (A. castellani based on morphological characteristics) was derived from an infected human cornea and used throughout this study. ATCC strain 30868 should have similar properties. The parasites were axenically cultured in PYG medium. A solid-phase assay characterized the sugar binding properties of the mannose binding protein (MBP) of Acanthamoeba (Z. Yang et al., Infect. Immun. 65:439-445, 1997). Briefly, wells of microtiter plates were coated with bovine serum albumin-α-D-mannopyranosyl phenylisothiocyanate (Man-BSA, 15-25 moles of α-D-mannopyranoside/mole albumin, 0.03 μg/ml, 50μl/well in 0.1 M sodium carbonate buffer, pH 9.6, 4° C. overnight). Nonspecific binding was blocked with 1% BSA in phosphate buffered saline (PBS, 1 hour, room temperature). After adding a 50-μl aliquot of ^35 S-labeled Acanthamoeba (5×10^6 cells/ml in PBS; 1 to 2 cpm/parasite, >95% trophozoites) to each well, the plates were incubated for 2 hours at room temperature. After rinsing the cells with PBS to remove unbound Acanthamoeba, 0.1 ml of 2% sodium dodecyl sulfate (SDS) was added to each well, and the radioactivity in aliquots of solubilized material was determined in a scintillation counter.

Acanthamoeba [3] = experiment: Acanthamoeba-induced cytopathic effect (CPE) assay, immortalized corneal epithelial cultures; format: cell-based; conditions: for Inhibition of amoeba-induced CPE: no concentration stated; for inhibition at 50000 µM: at 50 mM; for inhibition at 310 µM: at 0.31 mM
Protocol: Corneal epithelial cells with extended life span were also produced.
(§2) To characterize the role of carbohydrate-mediated host-parasite interactions in the Acanthamoeba-induced cytotoxicity of host cells, in vitro cytopathic assays were performed using both primary and immortalized cultures of corneal epithelium as host cells. Immortalized cells were assayed as confluent cultures in 24-well plates, and primary cells were assayed as confluent cells in 35-mm dishes or 6-well plates.
(§3) The plates were incubated at 37° C. in a CO2 incubator and periodically examined under a phase-contrast microscope for the presence of cell-free plaques in the monolayer for up to 28-30 hours. Control wells contained host cells without the parasites. At the end of the incubation period, the cultures were stained with Giemsa (Diff-Quik, Dade Diagnostic Inc., Aguada, PR). Approximate cell density in each well was estimated by scanning the stained plates in a calibrated, computer-assisted Bio-Image Scanner (Millipore, Ann Arbor, Mich.). Cytopathic effect (CPE) was expressed as percentage of the optical density by the following formula: [formula]
The CPE assays were performed in the SFB media containing one or more saccharides to be tested.
After staining with Giemsa, percent cell loss in each well was calculated based on the optical density in each well.

Acanthamoeba [4] = experiment: Acanthamoeba-induced CPE assay, primary cultures of corneal epithelium; format: cell-based; conditions: primary cultures as target cells
Protocol: In vitro cytopathic assays were performed using cell cultures of corneal epithelium as target cells. Primary cell cultures of rabbit corneal epithelium were prepared according to published protocols (M. M. Jumblatt, Invest. Opthalmol. Visual Sci. 24:1139-43, 1983) using rabbit eyes from Pel-Freez Biologicals (N. Panjwani et al., Invest. Opthalmol. Visual Sci. 31:689-695, 1990) (Rogers, AK). Generally, seventy-five eyes were processed at a time. Primary cultures have limited life span and can only be passaged 2 to 3 times without significant alteration in cell morphology.
as §2
as §3, with “The parasites (>95% trophozoites) were rinsed three times in a serum-free Eagle's minimum essential medium supplemented with 0.4% bovine serum albumin (SFB) and aliquots of the parasite suspension (0.2×10^5 to 1×10^6 parasites/ml SFB medium, 300 μl/well for 24-well plates and 500 μl/well for 6-well plates or 35-mm dishes) were added to wells of confluent epithelial cultures which had been rinsed and preincubated in SFB medium for 2 hours. The” for “The”
Primary cultures were less susceptible to amoeba-induced CPE, requiring 1×10^6 parasites/ml to completely destroy the monolayer within 24 hours. This parasite concentration was five times higher than that required to produce the same effect when immortalized cultures were used as target host cells.

[5] = Acanthamoeba, in Oryctolagus cuniculus, read-out: Inhibition of cytopathic effect (% inhib. at indicated conc.)

Structure (SMILES): c1cnc2c(c1)ccc1cccnc12 [1,10-phenanthroline]
- Susceptibility of component P1 (230 kD) to inhibitor [1]: resistant
- Susceptibility of component P2 (97 kD) to inhibitor [1]: resistant
- Susceptibility of component P3 (80 kD) to inhibitor [1]: susceptible
- Susceptibility of component P4 (55 kD) to inhibitor [1]: resistant
- Susceptibility of component E1 (93 kD) to inhibitor (proteinases E1, E2): susceptible
- Susceptibility of component E2 (63 kD) to inhibitor (proteinases E1, E2): susceptible

Structure (SMILES): OC[C@H]1OC(O)[C@@H](O)[C@H](O)[C@@H]1O (stereo partly drawn) [D-altrose]
- Inhibition of Acanthamoeba binding to Man-BSA [2]: did not inhibit
- Inhibition of amoebic binding to Man-BSA / affinity of amoebic lectin [2]: not inhibitory
- Inhibition of amoeba-induced cytopathic effect (Acanthamoeba [3]): did not inhibit

Structure (SMILES): OC1OC[C@@H](O)[C@H](O)[C@@H]1O (stereo partly drawn) [D-lyxose]
- Inhibition of Acanthamoeba binding to Man-BSA [2]: did not inhibit
- Inhibition of amoebic binding to Man-BSA / affinity of amoebic lectin [2]: lack of inhibitory activity; also recorded: no affinity
- Inhibition of amoeba-induced cytopathic effect (Acanthamoeba [3]; at 100 mM): did not inhibit

Structure (SMILES): OC[C@@H](O)[C@@H](O)[C@H](O)[C@H](O)CO [D-mannitol]
- Inhibition of Acanthamoeba binding to Man-BSA [2]: did not inhibit
- Inhibition of amoebic binding to Man-BSA / affinity of amoebic lectin [2]: did not inhibit
- Inhibition of amoeba-induced cytopathic effect (Acanthamoeba [3]; at 100 mM): did not inhibit
- Inhibition of amoeba-induced CPE (Acanthamoeba [3]): did not inhibit

Structure (SMILES): O=P(O)(O)OC[C@H]1OC(O)[C@@H](O)[C@@H](O)[C@@H]1O (stereo partly drawn) [D-mannose-6-phosphate]
- Inhibition of Acanthamoeba binding to Man-BSA [2]: did not inhibit; also recorded: No inhibition
- inhibition at 50000 µM (Acanthamoeba [3]; [5]): 30%
- Inhibition of amoeba-induced cytopathic effect (Acanthamoeba [3]; at 100 mM): did not inhibit

Structure (SMILES): OC[C@H]1OC(O)[C@@H](O)[C@@H](O)[C@@H]1O (stereo partly drawn) [D-mannose]
- inhibition at 5000 µM (Acanthamoeba [3]; [5]): 50%

Structure (SMILES): OC[C@@H]1OC(O)[C@H](O)[C@H](O)[C@H]1O (stereo partly drawn) [L-mannose]
- Inhibition of Acanthamoeba binding to Man-BSA [2]: did not inhibit
- Inhibition of amoeba-induced cytopathic effect (Acanthamoeba [3]): did not inhibit

Structure (SMILES): C[C@@H]1OC(O)[C@H](O)[C@H](O)[C@H]1O (stereo partly drawn) [L-rhamnose]
- Inhibition of Acanthamoeba binding to Man-BSA [2]: did not inhibit
- Inhibition of amoeba-induced cytopathic effect (Acanthamoeba [3]; at 100 mM): did not inhibit

Structure (SMILES): OCC1OC(OC2C(O)C(CO)OC(OCC3OC(OC4C(O)C(CO)OC(OCC5OC(O)C(O)C(O)C5O)C4O)C(O)C(O)C3O)C2O)C(O)C(O)C1O (stereo not drawn) [Man(α1-3)Man(α1-6)Man-(α1-3)Man(α1-6)Man]
- Inhibition of amoebic binding to Man-BSA / affinity of amoebic lectin [2]: potent inhibitors
- Inhibition of amoeba-induced CPE (Acanthamoeba [3]): potent inhibitors
- Inhibition of amoeba-induced CPE (Acanthamoeba [4]): inhibited CPE

Structure (SMILES): OCC1OC(OC2C(O)C(CO)OC(OCC3OC(O)C(O)C(O)C3O)C2O)C(O)C(O)C1O (stereo not drawn) [Man(α1-3)Man(α1-6)Man]
- Inhibition of amoebic binding to Man-BSA / affinity of amoebic lectin [2]: potent inhibitors
- inhibition at 310 µM (Acanthamoeba [3]; [5]): 100%
- Inhibition of amoeba-induced CPE (Acanthamoeba [3]): potent inhibitors
- Inhibition of amoeba-induced CPE (Acanthamoeba [4]): inhibited CPE

Structure (SMILES): OC[C@H]1O[C@H](O[C@H]2[C@H](O)[C@@H](CO)OC(O)[C@H]2O)[C@@H](O)[C@@H](O)[C@@H]1O (stereo partly drawn) [Man(α1-3)Man]
- Relative inhibitory potency in binding to Man-BSA ([2]; comparator named in the value): three times more potent than the corresponding α-1-6 disaccharide
- inhibition at 310 µM (Acanthamoeba [3]; [5]): 91%

Structure (SMILES): OC[C@H]1O[C@H](OC[C@H]2OC(O)[C@@H](O)[C@@H](O)[C@@H]2O)[C@@H](O)[C@@H](O)[C@@H]1O (stereo partly drawn) [Man(α1-6)Man]
- inhibition at 310 µM (Acanthamoeba [3]; [5]): 80%

Structure (SMILES): CO[C@H]1O[C@H](CO)[C@@H](O)[C@H](O)[C@H]1O [Methyl-α-D-glucopyranoside]
- Inhibition of amoebic binding to Man-BSA / affinity of amoebic lectin [2]: poor inhibitors
- inhibition at 100000 µM ([2]; read-out: Inhibition of binding, % at indicated conc.): 40%
- inhibition at 50000 µM (Acanthamoeba [3]; [5]): 31%
- Inhibition of amoeba-induced CPE (Acanthamoeba [3]): poor inhibitors

Structure (SMILES): CC(=O)N[C@H]1C(O)O[C@H](CO)[C@H](O)[C@@H]1O (stereo partly drawn) [N-acetyl-D-galactosamine]
- Inhibition of Acanthamoeba binding to Man-BSA [2]: did not inhibit
- Inhibition of amoeba-induced cytopathic effect (Acanthamoeba [3]; at 100 mM): did not inhibit

Structure (SMILES): CC(=O)N[C@@H]1C(O)O[C@H](CO)[C@@H](O)[C@@H]1O (stereo partly drawn) [N-acetyl-D-mannosamine]
- Inhibition of Acanthamoeba binding to Man-BSA [2]: did not inhibit
- Inhibition of amoebic binding to Man-BSA / affinity of amoebic lectin [2]: did not inhibit
- Inhibition of amoeba-induced cytopathic effect (Acanthamoeba [3]; at 100 mM): did not inhibit
- Inhibition of amoeba-induced CPE (Acanthamoeba [3]): did not inhibit

Structure (SMILES): OC[C@H]1OC(O)[C@H](O)[C@@H](O)[C@@H]1O (some centres unmarked) [glucose]
- Inhibition of amoebic binding to Man-BSA / affinity of amoebic lectin [2]: weak inhibitor

Structure (SMILES): CO[C@H]1O[C@H](CO)[C@H](O)[C@H](O)[C@H]1O [methyl-α-D-galactopyranoside]
- Inhibition of Acanthamoeba binding to Man-BSA [2]: did not inhibit
- Inhibition of amoebic binding to Man-BSA / affinity of amoebic lectin [2]: did not inhibit
- Inhibition of amoeba-induced cytopathic effect (Acanthamoeba [3]; at 100 mM): did not inhibit
- Inhibition of amoeba-induced CPE (Acanthamoeba [3]): did not inhibit
- Inhibition of amoeba-induced CPE (Acanthamoeba [4]): did not inhibit CPE

Structure (SMILES): CO[C@@H]1O[C@H](CO)[C@H](O)[C@H](O)[C@H]1O [methyl-β-D-galactopyranoside]
- Inhibition of Acanthamoeba binding to Man-BSA [2]: did not inhibit
- Inhibition of amoebic binding to Man-BSA / affinity of amoebic lectin [2]: did not inhibit
- Inhibition of amoeba-induced cytopathic effect (Acanthamoeba [3]; at 100 mM): did not inhibit
- Inhibition of amoeba-induced CPE (Acanthamoeba [3]): did not inhibit
- Inhibition of amoeba-induced CPE (Acanthamoeba [4]): did not inhibit CPE

Structure (SMILES): CO[C@@H]1O[C@H](CO)[C@@H](O)[C@H](O)[C@H]1O [methyl-β-D-glucopyranoside]
- Inhibition of Acanthamoeba binding to Man-BSA [2]: did not inhibit
- Inhibition of amoeba-induced cytopathic effect (Acanthamoeba [3]; at 100 mM): did not inhibit

Structure (SMILES): OC[C@H]1O[C@H](O)[C@@H](O)[C@@H](O)[C@H]1O [α-D-talose]
- Inhibition of Acanthamoeba binding to Man-BSA [2]: did not inhibit
- Inhibition of amoebic binding to Man-BSA / affinity of amoebic lectin [2]: not inhibitory
- Inhibition of amoeba-induced cytopathic effect (Acanthamoeba [3]; at 100 mM): did not inhibit

Structure (SMILES): C[C@@H]1O[C@@H](O)[C@@H](O)[C@H](O)[C@@H]1O [α-L-Fucose]
- Inhibition of amoebic binding to Man-BSA / affinity of amoebic lectin [2]: poor inhibitors; also recorded: weak inhibitor
- Inhibition of amoebic binding to Man-BSA / affinity of amoebic lectin ([2]; listed as α-fucose): weak inhibitors
- inhibition at 100000 µM (Acanthamoeba [3]; Acanthamoeba, in Oryctolagus cuniculus, at 100 mM, read-out: Inhibition of cytopathic effect (% inhib. at indicated conc.)): 40%
- Inhibition of amoeba-induced CPE (Acanthamoeba [3]): poor inhibitors; also recorded: weak inhibitor
- Inhibition of amoeba-induced CPE (Acanthamoeba [4]): not inhibitory
